Measured values published in patent US8409603B2, “Compositions and methods for tissue engineering, tissue regeneration and wound healing” (University of South Carolina, priority 2009, dated 2013).

Test system: lens epithelial cells
Experiment: Toroid (ring) formation by cells added onto polymerized collagen gel
Type: cell-based
Conditions: addition to the culture fluid of 3-30 ng
Experimental: FIG. 1 illustrates examples of toroids generated from EMT-primed lens epithelial cells; a-c) a control series of 3 toroids generated in regular media, d-f) a control series of 3 toroids generated in media containing a control peptide and g-h) a series of 3 toroids generated in media containing a an ACT1 peptide in combination with Tgfb1.
In a variation on this protocol, cells were added onto an already polymerized gel and the gel was detached after 24 hours of culture. Following a subsequent 24 hours it was noted that quite unlike what was observed when cells were pre-mixed into the gel, cells added post-polymerization always formed into uniform circular rings of repeatable diameter (FIG. 1b). […] Confocal microscopy of rhodamine-phalloidin and nuclear-DAPI stained gels indicated a two-phase structure with cells undergoing recruitment at the outer rim arranging in radial spoke-like arrays (FIG. 1e), whereas cells in on the inner rim organized into a contractile ring (FIG. 1f). […] This experiment was repeated with REC cells (Wada A M, Smith T K, Osler M E, Reese D E, Bader D M. Epicardial/Mesothelial cell line retains vasculogenic potential of embryonic epicardium. Circ Res. 2003 Mar. 21; 92(5):525-31. Epub 2003 Feb. 6, incorporated by reference herein), a rat […] with similar effect. […]

Question: With TGF-b as the substance, how does the “ring size of toroid” value read?
Answer: predictably altered
